Assay results taken from patent US20020177180A1, “pH-indicator based assay for selective enzymes” (ThermoGen, Inc., priority 1998, published 2002).

System: ThermoGen esterases
Assay: Initial screening (pH indicator): esters as substrates of the ThermoGen esterases, statements for the esterases as a group
Format: biochemical
Settings: enantiomer pair library, Tables 8-12
Protocol: (§1) Initial screening measures the initial rate of hydrolysis of different esters. The rate of reaction was measured by monitoring the release of protons using a pH indicator, 4-nitrophenol. In this assay, the yellow color of the phenoxide disappears as the reaction proceeds. The amount of ester hydrolyzed can be measured quantitatively, as is known in the art.
(§2) To survey the substrate selectivity of the ThermoGen esterases, the ability of the enzymes to hydrolyze thirty-one different commercially-available esters, Scheme 1 (FIG. 9, Table 6).
To evaluate the potential of the ThermoGen esterases for enantioselective reactions, the initial rates of hydrolysis of the esterases were measured using twenty-one pairs of enantiomers, Scheme 2, FIG. 10 and Tables 8-12. The ratio of these initial rates is an estimated enantioselectivity.

SMILES	quality as substrate of the ThermoGen esterases (in words), enantiomer pairs
CCCC(=O)OCC1COC(C)(C)O1 (single isomer, unassigned) [Substrate 32]	best substrates
O=C(OCC1CO1)c1ccc([N+](=O)[O-])cc1 (single isomer, unassigned) [Substrate 33]	best substrates
CCCCCCCC(=O)OCC1COC(C)(C)O1 (single isomer, unassigned) [Substrate 35]	best substrates
COC(=O)C(C)CO (single isomer, unassigned) [Substrate 39]	poorest substrates
COC(=O)CC(C)O (single isomer, unassigned) [Substrate 40]	poorest substrates
COC(=O)C(O)c1ccccc1 (single isomer, unassigned) [Substrate 46]	poorest substrates
COC(=O)C(C)N (single isomer, unassigned) [Substrate 47]	poorest substrates
CCOC(=O)C1CCC(=O)N1 (single isomer, unassigned) [Substrate 48]	poorest substrates
O=C1CCC(CO)O1 (single isomer, unassigned) [Substrate 51]	poorest substrates
CC1(C)COC(=O)C1O (single isomer, unassigned) [Substrate 52]	poorest substrates

Same assay, conditions: esters 1-31, initial screening

SMILES	quality as substrate of the ThermoGen esterases (in words)
CC(C)(C)CC(=O)Oc1ccc2nc3ccc(=O)cc-3oc2c1 [Substrate 10, Resorufin t-butylacetate (resorufin 3,3-dimethylbutyrate), reference compound]	good substrate for several esterases
C=COC(=O)C(C)(C)C [Substrate 11]	poor substrate for all the esterases
CCCC(=O)OCC [Substrate 13]	reacted much slower

Same assay, conditions: ratio of initial rates of enantiomer pairs

SMILES	estimated enantioselectivities with ThermoGen esterases (in words)
CC1(COC(=O)c2ccc([N+](=O)[O-])cc2)CO1 (single isomer, unassigned) [Substrate 34]	estimated enantioselectivities above two with several esterases
CCCC(=O)OC(C)c1ccccc1 (single isomer, unassigned) [Substrate 38]	higher estimated enantioselectivities with most ThermoGen esterases
COC(=O)C1COC(C)(C)O1 (single isomer, unassigned) [Substrate 43]	estimated enantioselectivities above two with several esterases
COC(=O)C(C)CBr (single isomer, unassigned) [Substrate 44]	estimated enantioselectivities above two with several esterases
COC(=O)C(C)Cl (single isomer, unassigned) [Substrate 45]	higher estimated enantioselectivities with most ThermoGen esterases
COC(=O)C(C)N (single isomer, unassigned) [Substrate 47]	estimated enantioselectivities above two with several esterases
COC(=O)C(N)Cc1c[nH]c2ccccc12 (single isomer, unassigned) [Substrate 50]	estimated enantioselectivities above two with several esterases
CC(=O)OC1CC(C)CCC1C(C)C (centres unmarked) [Substrate 36]	estimated enantioselectivities above two with several esterases

System: esterase E014
Assay: Initial screening of ThermoGen esterases toward esters 1-31 (pH indicator), specific activity
Format: biochemical
Settings: 1 mM substrate, pH 7.2, 7 vol % acetonitrile, 25° C.
Protocol: as §1, §2

SMILES	Specific activity, esterase E014
CC(C)(C)CC(=O)Oc1ccc2nc3ccc(=O)cc-3oc2c1 [Substrate 10, Resorufin t-butylacetate (resorufin 3,3-dimethylbutyrate), reference compound]	1.0 mmol ester hydrolyzed/min/mg protein
C=COC(=O)C(C)(C)C [Substrate 11]	0.40 mmol ester hydrolyzed/min/mg protein
CCCC(=O)OCC [Substrate 13]	0.40 mmol ester hydrolyzed/min/mg protein
CCCCOC(C)=O [Substrate 25]	0.21 mmol ester hydrolyzed/min/mg protein
C=C(C)OC(C)=O [Substrate 27]	0.73 mmol ester hydrolyzed/min/mg protein
CCC(C)OC(C)=O (centres unmarked) [Substrate 28]	<0.1 mmol ester hydrolyzed/min/mg protein
CCCC(=O)OCC(COC(=O)CCC)OC(=O)CCC [Substrate 29]	280 mmol ester hydrolyzed/min/mg protein
CCCC(=O)OCC1CO1 (centres unmarked) [Substrate 30]	0.53 mmol ester hydrolyzed/min/mg protein

System: esterase E016
Assay: as above
Format: biochemical
Settings: 1 mM substrate, pH 7.2, 7 vol % acetonitrile, 25° C.
Protocol: as §1, §2

SMILES	Specific activity, esterase E016
CC(C)(C)CC(=O)Oc1ccc2nc3ccc(=O)cc-3oc2c1 [Substrate 10, Resorufin t-butylacetate (resorufin 3,3-dimethylbutyrate), reference compound]	50 mmol ester hydrolyzed/min/mg protein
C=COC(=O)C(C)(C)C [Substrate 11]	20 mmol ester hydrolyzed/min/mg protein
CCCC(=O)OCC [Substrate 13]	3.5 mmol ester hydrolyzed/min/mg protein
CCCCOC(C)=O [Substrate 25]	13 mmol ester hydrolyzed/min/mg protein
C=C(C)OC(C)=O [Substrate 27]	49 mmol ester hydrolyzed/min/mg protein
CCC(C)OC(C)=O (centres unmarked) [Substrate 28]	<2 mmol ester hydrolyzed/min/mg protein
CCCC(=O)OCC(COC(=O)CCC)OC(=O)CCC [Substrate 29]	130 mmol ester hydrolyzed/min/mg protein
CCCC(=O)OCC1CO1 (centres unmarked) [Substrate 30]	14 mmol ester hydrolyzed/min/mg protein

System: esterase E012
Assay: as above
Format: biochemical
Settings: 1 mM substrate, pH 7.2, 7 vol % acetonitrile, 25° C.
Protocol: as §1, §2

SMILES	Specific activity, esterase E012
CC(C)(C)CC(=O)Oc1ccc2nc3ccc(=O)cc-3oc2c1 [Substrate 10, Resorufin t-butylacetate (resorufin 3,3-dimethylbutyrate), reference compound]	22 mmol ester hydrolyzed/min/mg protein
C=COC(=O)C(C)(C)C [Substrate 11]	16 mmol ester hydrolyzed/min/mg protein
CCCC(=O)OCC [Substrate 13]	<2 mmol ester hydrolyzed/min/mg protein
CCCCOC(C)=O [Substrate 25]	<2 mmol ester hydrolyzed/min/mg protein
C=C(C)OC(C)=O [Substrate 27]	2.4 mmol ester hydrolyzed/min/mg protein
CCC(C)OC(C)=O (centres unmarked) [Substrate 28]	<2 mmol ester hydrolyzed/min/mg protein
CCCC(=O)OCC(COC(=O)CCC)OC(=O)CCC [Substrate 29]	37 mmol ester hydrolyzed/min/mg protein
CCCC(=O)OCC1CO1 (centres unmarked) [Substrate 30]	3.4 mmol ester hydrolyzed/min/mg protein

System: esterase E006
Assay: as above
Format: biochemical
Settings: 1 mM substrate, pH 7.2, 7 vol % acetonitrile, 25° C.
Protocol: as §1, §2

SMILES	Specific activity, esterase E006
CC(C)(C)CC(=O)Oc1ccc2nc3ccc(=O)cc-3oc2c1 [Substrate 10, Resorufin t-butylacetate (resorufin 3,3-dimethylbutyrate), reference compound]	5.7 mmol ester hydrolyzed/min/mg protein
C=COC(=O)C(C)(C)C [Substrate 11]	0.52 mmol ester hydrolyzed/min/mg protein
CCCC(=O)OCC [Substrate 13]	1.1 mmol ester hydrolyzed/min/mg protein
CCCCOC(C)=O [Substrate 25]	0.54 mmol ester hydrolyzed/min/mg protein
C=C(C)OC(C)=O [Substrate 27]	69 mmol ester hydrolyzed/min/mg protein
CCC(C)OC(C)=O (centres unmarked) [Substrate 28]	0.16 mmol ester hydrolyzed/min/mg protein
CCCC(=O)OCC(COC(=O)CCC)OC(=O)CCC [Substrate 29]	370 mmol ester hydrolyzed/min/mg protein
CCCC(=O)OCC1CO1 (centres unmarked) [Substrate 30]	3.5 mmol ester hydrolyzed/min/mg protein

System: esterase E020
Assay: as above
Format: biochemical
Settings: 1 mM substrate, pH 7.2, 7 vol % acetonitrile, 25° C.
Protocol: as §1, §2

SMILES	Specific activity, esterase E020
CC(C)(C)CC(=O)Oc1ccc2nc3ccc(=O)cc-3oc2c1 [Substrate 10, Resorufin t-butylacetate (resorufin 3,3-dimethylbutyrate), reference compound]	14 mmol ester hydrolyzed/min/mg protein
C=COC(=O)C(C)(C)C [Substrate 11]	1.2 mmol ester hydrolyzed/min/mg protein
CCCC(=O)OCC [Substrate 13]	3.0 mmol ester hydrolyzed/min/mg protein
CCCCOC(C)=O [Substrate 25]	2.0 mmol ester hydrolyzed/min/mg protein
C=C(C)OC(C)=O [Substrate 27]	3.3 mmol ester hydrolyzed/min/mg protein
CCC(C)OC(C)=O (centres unmarked) [Substrate 28]	2.1 mmol ester hydrolyzed/min/mg protein
CCCC(=O)OCC(COC(=O)CCC)OC(=O)CCC [Substrate 29]	560 mmol ester hydrolyzed/min/mg protein
CCCC(=O)OCC1CO1 (centres unmarked) [Substrate 30]	2.0 mmol ester hydrolyzed/min/mg protein

System: esterase E015
Assay: as above
Format: biochemical
Settings: 1 mM substrate, pH 7.2, 7 vol % acetonitrile, 25° C.
Protocol: as §1, §2

SMILES	Specific activity, esterase E015
CC(C)(C)CC(=O)Oc1ccc2nc3ccc(=O)cc-3oc2c1 [Substrate 10, Resorufin t-butylacetate (resorufin 3,3-dimethylbutyrate), reference compound]	5.9 mmol ester hydrolyzed/min/mg protein
C=COC(=O)C(C)(C)C [Substrate 11]	4.0 mmol ester hydrolyzed/min/mg protein
CCCC(=O)OCC [Substrate 13]	2.0 mmol ester hydrolyzed/min/mg protein
CCCCOC(C)=O [Substrate 25]	1.0 mmol ester hydrolyzed/min/mg protein
C=C(C)OC(C)=O [Substrate 27]	100 mmol ester hydrolyzed/min/mg protein
CCC(C)OC(C)=O (centres unmarked) [Substrate 28]	0.29 mmol ester hydrolyzed/min/mg protein
CCCC(=O)OCC(COC(=O)CCC)OC(=O)CCC [Substrate 29]	550 mmol ester hydrolyzed/min/mg protein
CCCC(=O)OCC1CO1 (centres unmarked) [Substrate 30]	3.2 mmol ester hydrolyzed/min/mg protein

System: esterase E011
Assay: as above
Format: biochemical
Settings: 1 mM substrate, pH 7.2, 7 vol % acetonitrile, 25° C.
Protocol: as §1

SMILES	Specific activity, esterase E011
CC(C)(C)CC(=O)Oc1ccc2nc3ccc(=O)cc-3oc2c1 [Substrate 10, Resorufin t-butylacetate (resorufin 3,3-dimethylbutyrate), reference compound]	2.7 mmol ester hydrolyzed/min/mg protein
C=COC(=O)C(C)(C)C [Substrate 11]	0.80 mmol ester hydrolyzed/min/mg protein
CCCC(=O)OCC [Substrate 13]	0.71 mmol ester hydrolyzed/min/mg protein
CCCCOC(C)=O [Substrate 25]	0.5 mmol ester hydrolyzed/min/mg protein
C=C(C)OC(C)=O [Substrate 27]	45 mmol ester hydrolyzed/min/mg protein
CCC(C)OC(C)=O (centres unmarked) [Substrate 28]	0.19 mmol ester hydrolyzed/min/mg protein
CCCC(=O)OCC(COC(=O)CCC)OC(=O)CCC [Substrate 29]	450 mmol ester hydrolyzed/min/mg protein
CCCC(=O)OCC1CO1 (centres unmarked) [Substrate 30]	1.2 mmol ester hydrolyzed/min/mg protein
